# Test results published in US11618746B2, “Inhibitors of APOL1 and methods of using same” (Vertex Pharmaceuticals Incorporated, priority 2018, dated 2023).
# Molecular target: T1, G1 APOL1 (Homo sapiens, UniProt O14791, I384M/S342G)
# T1 construct: expressed in transfected cells
# T1 sequence (O14791 28-398 S342G/I384M): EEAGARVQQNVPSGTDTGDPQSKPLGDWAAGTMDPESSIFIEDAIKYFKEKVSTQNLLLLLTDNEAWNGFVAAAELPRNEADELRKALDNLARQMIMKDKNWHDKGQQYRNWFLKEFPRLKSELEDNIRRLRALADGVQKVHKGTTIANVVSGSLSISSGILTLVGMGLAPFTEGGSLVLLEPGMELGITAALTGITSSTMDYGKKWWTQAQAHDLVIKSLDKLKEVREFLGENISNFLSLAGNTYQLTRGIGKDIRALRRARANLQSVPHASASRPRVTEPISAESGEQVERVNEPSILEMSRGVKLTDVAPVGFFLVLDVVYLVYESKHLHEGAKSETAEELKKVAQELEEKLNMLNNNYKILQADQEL
# Test: Acute APOL1 Thallium Assay with inducible stable clones of HEK 293 cells
# Assay type: cell-based
# Details: HEK T-Rex tetracycline-inducible cells expressing G1 APOL1 (clone G1 DC3.25); inhibition of thallium flux rate
# From the text: Acute APOL1 Thallium Assay with Inducible Stable Clones of HEK 293 Cells
# Apolipoprotein L1 (APOL1) proteins form potassium-permeable cation pores in the plasma membrane. APOL1 risk variants (G1 and G2) induce greater potassium flux than G0 in HEK293 cells. This assay exploits the permeability of thallium (T1+) through ligand-gated potassium channels. The dye produces a bright fluorescent signal upon binding to T1+ conducted through potassium channels. The intensity of the T1+ signal is proportional to the number of potassium channels in the open state. Therefore, it provides a functional indication of the potassium channel activities. During the initial dye-loading step, the T1+ indicator dye as an acetoxymethyl (AM) ester enters the cells through passive diffusion. Cytoplasm esterases cleave the AM ester and relieve its active thallium-sensitive form. The cells are then stimulated with T1+. The increase of fluorescence in the assay represents the influx of T1+ into the cell specifically through the potassium channel (i.e. through APOL1 pores), providing a functional measurement of potassium channel/pore activity. The Thallium assay is conducted with cells expressing G1 APOL1.
# APOL1 Cell Line (HEK T-Rex Stable Inducible Cell Line) • HEK T-Rex System • Tetracycline (Tet) inducible mammalian expression system. • Stably express the Tet repressor to regulate transcription. • Expression under the full-length CMV promoter. • APOL1 stable inducible cell line Clone used: G1 DC3.25
# Tissue Culture Media • Cell Culture Medium • DMEM +10% FBS +P/S +5 μg/mL blasticidin+1 μg/mL puromycin. • 500 mL DMEM +55 mL FBS +5 mL P/S +280 μL blasticidin S HCl (10 mg/mL)+56 μL puromycin (10 mg/mL). • Cell Assay Medium • DMEM with 2% FBS+pen strep.
# Instruments and Equipment • Nuaire cell culture hood, Cat. No. 540-600 • 37° C./5% CO2 incubator link to robotic arm, Liconic: STX110 • Molecular Devices FLIPR^Tetra High throughput cellular screening system, Cat. No. FT0324, Molecular Devices • ThermoFisher MultiDrop 384, Cat. No. 5840300 • Biotek Microfill, Cat. No. ASF1000A-4145 • BioRad TC10 cell counter, Cat. No. 145-0010 Assay Procedures
# Cells Scaled Up from Frozen Vials • APOL1 G1 3.25 (HEK293 T-Rex) frozen vials: 5 million cells per vial • Step 1, Day 1: Defrost frozen vial into T-225. • Step 2, Day 5: (when 85% confluent): Split one T-225 at 3×10^6 cells per flask. • Step 3, Day 8: Splits cells to set up for the assay plates as described below.
# T-Rex APOL1 HEK cells are split twice per week to keep the confluence state below 85% of the culture flask surface area. Cells can be kept until passage 25. • Cell Culture Medium • DMEM high glucose +10% FBS, +P/S, +5 μg/mL blasticidin, +1 μg/mL puromycin. • 500 mL DMEM, +55 mL FBS, +5 mL P/S, +280 μL blasicidin 10 mg/mL, +56 μL Puromycin 10 mg/mL. • Assay Media • Opti-MEM reduced serum medium from Invitrogen.
# Preparation of Cell Assay Plates • Culture medium is removed from the x cm^2 T-flask by aspiration. • The cell monolayer is rinsed with PBS 1× at room temperature. PBS is removed by aspiration. • Cells are trypsinized using Trypsin. • The flasks are incubated at room temperature for 2-3 minutes. • Complete DMEM medium is then added. Cell suspension is then transferred to a 50 mL Falcon polypropylene tube. • Cells are then counted using a Biorad TC10 cell counter and the required amount of cells are centrifuged at 1200 RPM for 5 minutes. Required amount is 1.3×10^6 cells/mL APOL1 T-Rex HEK cells. • The pellet is suspended in the assay medium. • Using the MultiDrop, add 20 μL to each well (corresponds to 26000 cells total per well) of a 384-well black, transparent, flat bottom Poly-D coated plate. • Tetracycline as prepared in the following section is added to the cells before plating to induce APOL1 expression. • Plates are left at room temperature for 20 to 30 minutes before incubation at 37° C. and 5% CO2. […]
row,Compound,IC50 [nM]
1,CC1C[C@H](NC(=O)CCc2c(-c3ccc(F)cc3)[nH]c3c(F)cc(F)cc23)C(=O)N1 (mixture of isomers) [Compound 6],250 to 1000
2,CC1(NC(=O)CCc2c(-c3ccc(F)cc3)[nH]c3c(F)cc(F)cc23)CCNC1=O (racemic) [Compound 14],250 to 1000
3,"O=C(CCc1c(-c2ccc(F)cc2)[nH]c2c(F)cc(F)cc12)N[C@H]1CCNC1=O [Compound 3, 3-[5,7-difluoro-2-(4-fluorophenyl)-1H-indol-3-yl]-N-[(3S)-2-oxopyrrolidin-3-yl]propanamide]",< 250
4,O=C1C[C@H](NC(=O)CCc2c(-c3ccc(F)cc3)[nH]c3c(F)cc(F)cc23)C(=O)N1 [Compound 5],250 to 1000
5,O=C(CCc1c(-c2ccc(F)cc2)[nH]c2c(F)cc(F)cc12)N[C@H]1C[C@@H](CO)NC1=O [Compound 7],> 1000
6,O=C(CCc1c(-c2ccc(F)cc2)[nH]c2c(F)cc(F)cc12)N[C@H]1C[C@H](CO)NC1=O [Compound 8],> 1000
7,O=C(CCc1c(-c2ccc(F)cc2)[nH]c2c(F)cc(F)cc12)N[C@@H]1CCNC1=O [Compound 13],250 to 1000
8,"N#Cc1ccc(-c2[nH]c3c(F)cc(F)cc3c2CCC(=O)N[C@H]2CCNC2=O)cc1 [Compound 20, 3-[2-(4-cyanophenyl)-5,7-difluoro-1H-indol-3-yl]-N-[(3S)-2-oxopyrrolidin-3-yl]propanamide]",< 250
9,O=C(CCc1c(-c2ccc(OC(F)F)cc2)[nH]c2c(F)cc(F)cc12)N[C@H]1CCNC1=O [Compound 21],< 250
10,O=C(CCc1c(-c2ccccc2)[nH]c2c(F)cc(F)cc12)N[C@@H]1C(=O)NC[C@H]1O [Compound 26],< 250
11,O=C(CCc1c(-c2ccc(F)cc2)[nH]c2c(F)cc(Br)cc12)N[C@H]1CCNC1=O [Compound 27],< 250
12,N#Cc1cc(F)c2[nH]c(-c3ccc(F)cc3)c(CCC(=O)N[C@H]3CCNC3=O)c2c1 [Compound 28],> 1000
13,Cc1cc(F)c2[nH]c(-c3ccc(F)cc3)c(CCC(=O)N[C@@H]3C(=O)NC[C@H]3O)c2c1 [Compound 29],< 250
14,O=C(CCc1c(-c2ccc(F)cc2)[nH]c2c(F)cc(Cl)cc12)N[C@@H]1C(=O)NC[C@H]1O [Compound 30],< 250
15,Cc1cc(F)cc2c(CCC(=O)N[C@@H]3C(=O)NC[C@H]3O)c(-c3ccc(F)cc3)[nH]c12 [Compound 37],< 250
16,N#Cc1cc(F)cc2c(CCC(=O)N[C@@H]3C(=O)NC[C@H]3O)c(-c3ccc(F)cc3)[nH]c12 [Compound 42],< 250
17,"Cc1ccc2[nH]c(-c3ccc(Br)cc3)c(CCC(=O)N[C@H]3CCNC3=O)c2c1 [Compound 43, 3-[2-(4-bromophenyl)-5-methyl-1H-indol-3-yl]-N-[(3S)-2-oxopyrrolidin-3-yl]propanamide]",< 250
18,O=C(CCc1c(-c2ccc(F)cc2)[nH]c2ccc(F)cc12)NC1CCNC1=O (stereo not shown) [Compound 48],< 250
19,O=C(CCc1c(-c2ccc(F)cc2)[nH]c2ccc(F)cc12)N[C@@H]1CCNC1=O [Compound 49],250 to 1000
20,CN(C(=O)CCc1c(-c2ccc(F)cc2)[nH]c2ccc(F)cc12)C1CCNC1=O (stereo not shown) [Compound 50],250 to 1000
21,O=C(CCc1c(-c2ccccc2)[nH]c2ccc(F)cc12)N[C@H]1CCNC1=O [Compound 52],< 250
22,"O=C(CCc1c(-c2ccc(F)cc2)[nH]c2ccc(OCc3ccccc3)cc12)N[C@H]1CCNC1=O [Compound 54, 3-[5-benzyloxy-2-(4-fluorophenyl)-1H-indol-3-yl]-N-[(3S)-2-oxopyrrolidin-3-yl]propanamide]",250 to 1000
23,"O=C(CCc1c(-c2ccc(F)cc2)[nH]c2ccc(O)cc12)N[C@H]1CCNC1=O [Compound 55, 3-[2-(4-fluorophenyl)-5-hydroxy-1H-indol-3-yl]-N-[(3S)-2-oxopyrrolidin-3-yl]propanamide]",> 1000
24,O=C(CCc1c(-c2ccccc2)[nH]c2c(F)cccc12)N[C@@H]1C(=O)NC[C@H]1O [Compound 61],< 250
25,O=C(CCc1c(-c2ccccc2)[nH]c2c(Br)cccc12)N[C@@H]1C(=O)NC[C@H]1O [Compound 70],< 250
26,O=C(CCc1c(-c2ccc(F)cc2)[nH]c2c(Cl)cccc12)N[C@H]1CCNC1=O [Compound 72],< 250
27,O=C(CCc1c(-c2ccc(F)cc2)[nH]c2c(F)cccc12)N[C@H]1CCNC1=O [Compound 75],< 250
28,O=C(CCc1c(-c2ccc(F)cc2)[nH]c2c(F)ccc(F)c12)N[C@H]1CCNC1=O [Compound 78],> 1000
29,O=C(CCc1c(-c2ccccc2)[nH]c2c(F)c(F)c(F)cc12)N[C@@H]1C(=O)NC[C@H]1O [Compound 80],< 250

# Other lines, results leading:
row,IC50 [nM],Compound
1,250 to 1000,O=C1C[C@@H](NC(=O)CCc2c(-c3ccc(F)cc3)[nH]c3c(F)cc(F)cc23)C(=O)N1 [Compound 16]
2,< 250,O=C(CCc1c(-c2ccc(F)cc2)[nH]c2c(Cl)cc(F)cc12)N[C@@H]1C(=O)NC[C@H]1O [Compound 36]
3,< 250,COc1cc(F)cc2c(CCC(=O)N[C@@H]3C(=O)NC[C@H]3O)c(-c3ccc(F)cc3)[nH]c12 [Compound 40]
4,< 250,"O=C(CCc1c(-c2ccccc2)[nH]c2ccc(Cl)cc12)N[C@@H]1C(=O)NC[C@H]1O [Compound 44, 3-(5-chloro-2-phenyl-1H-indol-3-yl)-N-[(3S,4R)-4-hydroxy-2-oxo-pyrrolidin-3-yl]propanamide]"
5,< 250,O=C(CCc1c(-c2ccc(F)cc2)[nH]c2ccc(F)cc12)N[C@@H]1C(=O)NC[C@H]1O [Compound 46]
6,< 250,O=C(CCc1c(-c2ccc(F)cc2)[nH]c2ccc(F)cc12)N[C@H]1CCNC1=O [Compound 47]
7,< 250,O=C(CCc1c(-c2ccccc2)[nH]c2ccc(F)cc12)N[C@@H]1C(=O)NC[C@H]1O [Compound 51]
8,< 250,O=C(CCc1c(-c2ccc(F)cc2)[nH]c2c(F)c(F)ccc12)N[C@@H]1C(=O)NC[C@H]1O [Compound 58]
9,< 250,O=C(CCc1c(-c2ccccc2)[nH]c2c(F)c(F)ccc12)N[C@@H]1C(=O)NC[C@H]1O [Compound 59]
10,< 250,O=C(CCc1c(-c2ccc(F)cc2)[nH]c2c(Cl)cccc12)N[C@@H]1C(=O)NC[C@H]1O [Compound 73]
11,< 250,O=C(CCc1c(-c2ccc(F)cc2)[nH]c2c(F)cccc12)N[C@@H]1C(=O)NC[C@H]1O [Compound 76]
12,< 250,O=C(CCc1c(-c2ccccc2)[nH]c2cc(F)c(F)cc12)N[C@@H]1C(=O)NC[C@H]1O [Compound 82]
13,< 250,O=C(CCc1c(-c2ccccc2)[nH]c2cc(F)cc(F)c12)N[C@@H]1C(=O)NC[C@H]1O [Compound 85]
14,< 250,O=C(CCc1c(-c2ccccc2)[nH]c2ccccc12)N[C@@H]1C(=O)NC[C@H]1O [Compound 86]
